Assay results: ChEMBL document CHEMBL1135010, “Synthetic studies of cis-4-Amino-L-proline derivatives as novel lipid lowering agents” (2002)
Activity calls are given as the source filed them. No cut-off for these calls is given here.

Key:
[1] = Screening was performed to determine its plasma triglyceride lowering activity on administration of 10 mg/kg/day dose for 6 days on inbreed colony of Swiss Albino Mice; format: functional, Mus musculus
[2] = Screening was performed to determine its plasma triglyceride lowering activity on administration of 30 mg/kg/day dose for 6 days on inbreed colony of Swiss Albino Mice; format: functional, Mus musculus
Mus musculus = assay: Screening was performed to determine its plasma triglyceride lowering activity on administration of 10 mg/kg/day on inbreed colony of Swiss Albino Mice; No significant reduction; format: functional, organism-based

SMILES | Lowering activity [1] [%] | Lowering activity [2] [%] | Lowering activity (Mus musculus)
CCc1nc2ccccc2c(=O)n1CC(=O)N[C@H]1C[C@@H](C(=O)O)N(C(=O)OC(C)(C)C)C1 | 30 |  | 
CCCc1nn(C)c2c(=O)n(CC(=O)N[C@H]3C[C@@H](C(=O)OCC)N(C(=O)OC(C)(C)C)C3)c(CC)nc12 | 40 |  | 
CC(C)OC(=O)C(C)(C)Oc1ccc(C(=O)c2ccc(Cl)cc2)cc1 [FENOFIBRATE] |  | 36 | inactive
